Assay results: patent publication US6346547B1, “N-substituted amino acids, antioxidant pharmaceutical compositions containing n-substituted amino acids and methods for preventing cardiovascular diseases and/or preventing and/or treating antioxidant responsive diseases therewith” (Checkpoint, Genetics, Inc., priority 1999, dated 2002)
“And” between values parts separate entries of the source, which are not always exact repeats. Identical values can stand only once.

Tests used:
[1] = system: human Low Density Lipoprotein; assay: inhibition of copper catalyzed LDL autoxidation (FOX assay); type: biochemical
Experimental: The antioxidant performance of test compounds was evaluated by measuring the extent of low density lipoprotein hydroxyperoxide by copper catalyzed autoxidation using a published dye based color assay (FOX Assay, see Zadeh, “Methods in Enzymology”, 300, 58 (1999)). The assay is easily performed and read in a 96-well microtitre plate. Microtitre plate readers assure rapid measurement of optical density which gives precise replicate measurements. Samples are evaluated in duplicate of triplicate (n=2 or n=3) with FOX reagent to indicate the level of LDL-hydroperoxide formed. Samples containing only LDL and copper sulfate without test materials, served as a positive control for comparison with identical mixtures containing test materials (Tables 1-6). Inhibition is characterized by a lower optical density than that obtained without test materials (LDL and copper sulfate alone).
Briefly, the procedure involved mixing human Low Density Lipoprotein (Sigma Chemical Company L2139) at a concentration of between 200-1000 μg/mL in phosphate buffered saline pH−7.4 (Pierce #28372 BupH™ with copper sulfate to a final concentration of 10 μg/mL. Incubation at 25° C. or 37° C., open to air effected oxidation, the mixture was sampled at time zero and between 3 and 20 hours of incubation for measurement of hydroperoxide in the FOX assay. Samples 25-30 μL were diluted with 10 volumes of FOX reagent (ferrous ammonium sulfate and […], see Zadeh, noted above) and allowed to stand for 30 minutes. Thereafter they were read in a microtitre plate reader.
The inhibition of LDL oxidation by tricine, bicine, monocine, vitamin E, glycine-glycine (Good's buffer compound XIV) and seaweed extract was studied in the procedure above. Using the spectrophotometric technique known as the FOX assay, as described in Jiang, Z., et al., “Ferrous Ion Oxidation in Presence of Xylenol Orange for Detection of Lipid Hydroperoxide in Low Density Lipoprotein”, Analytical Biochemistry, Vol. 202, pp. 384-9 (1992), the oxidation of LDL's in the presence of known hydroxyl radical scavengers (vitamin E and Good's buffer glycine-glycine), and in the presence of therapeutic agents in accordance with the present invention (tricine, bicine, seaweed extract), was monitored. […] Norman Good et al., “Hydrogen Ion Buffers For Biological Research,” Biochemistry, vol. 5, p. 467 (1966). […] Table 6 is a comparison of tricine, bicine, monocine and vitamin E oxidation inhibition of LDL at 37° C., average n=3 measurement with standard deviation.

[2] = system: rats; conditions: both, rat, in vivo, po, 14 days
Experimental: It is essential that any amino-acid-based compound used in accordance with the present invention have a low toxicity such that internal use in humans and other mammals is safe and well tolerated. Amino acid-based compounds used in accordance with the invention generally display no acute toxic effects at 1000 mg/Kg in rats after 2 weeks following oral administration. Preferably, amino acid-based compounds used in accordance with the present invention will display no effects at oral doses of at least 2000 mg/Kg in rats. […] For example, a cohort of rats can be fed a given dosage of an amino acid-based compound of general formula (I) and the relative toxic effects of the cohort can be monitored in comparison to a cohort fed a normal diet using standard EPA protocols.
Two cohorts of rats, each consisting of five females and five males, were marked and weighed. Each rat in a single cohort was administered 2000 mg/kg of tricine in a single oral dosage. Survival and body weight of the rats in each cohort was evaluated after 14 days to determine relative acute toxicity. Survival and general pathology was identical for both the control cohort and the tricine-treated cohort.

[3] = system: New Zealand white rabbits; assay: atherosclerotic lesions in thoracic aorta of cholesterol-fed rabbits; type: in vivo, rabbit; conditions: 12 weeks
Text: Ten female new Zealand white rabbits were divided into two groups of five (5) rabbits and subjected to an identical diet of Purina® rabbit chow supplemented with 1% cholesterol. […] A second group of five (5) rabbits received 1% tricine in their drinking water. Both groups were maintained under this feeding protocol for a period of twelve (12) weeks. Plasma samples were taken at study initiation and at two (2) week intervals throughout the study for measurement of total cholesterol. Systemic observations and body weights were regularly recorded. At twelve (12) weeks, the thoracic aorta was harvested from each animal, sliced longitudinally and preserved in 10% neutral formalin for subsequent analysis. Each aorta was individually stained with Sudan IV, and photographed for the extent of atherosclerotic lesions. Comparisons of percent atheroscledrotic lesions on the luminal surface between the groups enabled evaluation of the effect of tricine test article on atherosclerosis in this rabbit model.

[4] = system: hippocampal neurons, CA1 area; assay: gerbil forebrain ischemia (bilateral carotid occlusion): histology of CA1 neuronal damage; type: in vivo, Mongolian gerbil; parameters: Total Rating, severity of neuronal damage to CA1 area, individual gerbil: scale not given here; conditions: oral tricine 2000 mg/Kg 60 minutes before and after carotid occlusion, day 5
Experimental: Mongolian gerbils are subjected to bilaterial occlusion of carotid arteries to cause complete forebrain ischemia. The Mongolian gerbil is extensively used as a model of cerebral ischemia because of its unusual cerebral circulation resulting in sensitive and pronounced destruction of hippocampal neuron cells. as a result, bilateral occlusion of carotid arteries causes complete forebrain ischemia. The gerbils were divided into three groups, Group 1 gerbils were sham control and were administered vehicle (control) orally without carotid occlusion. Group 2 received oral tricine treatment at 2000 mg/Kg in vehicle solution both 60 minutes before and after carotid occlusion. Group […] gerbils received vehicle (control) 60 minutes before and after occlusion. The arteries were occluded after a midline cervical incision was made to expose both common carotid arteries. The surgery was performed on a heated surface to maintain body temperature. On completion of surgery, the animals were placed on Vetbed® and allowed to recover under a heat lamp. (Group 1) was subjected to the same surgical procedures except that the carotid arteries were not occluded. The day of surgery is identified as Day 1. Animals were killed on day 5, after completion of locomotor testing, by overdose with anaesthetic and perfusion with saline followed by a solution containing 10% neutral buffered formalin to fix the brain in situ. The brains were removed by dissection, 5 μm sections were taken at the level of the dorsal hippocampus, to coincide with CA1 area, and stained with haematoxylin and eosin. the sections were examined under light microscope, rated for severity of neuronal damage to the CA1 area.

[5] = system: Mongolian gerbils; assay: gerbil forebrain ischemia (bilateral carotid occlusion): locomotor activity; type: in vivo, Mongolian gerbil; conditions: individual gerbil, Group 3, approximately 96 hours after surgery
Experimental: Mongolian gerbils are subjected to bilaterial occlusion of carotid arteries to cause complete forebrain ischemia. The Mongolian gerbil is extensively used as a model of cerebral ischemia because of its unusual cerebral circulation resulting in sensitive and pronounced destruction of hippocampal neuron cells. as a result, bilateral occlusion of carotid arteries causes complete forebrain ischemia. The gerbils were divided into three groups, Group 1 gerbils were sham control and were administered vehicle (control) orally without carotid occlusion. Group 2 received oral tricine treatment at 2000 mg/Kg in vehicle solution both 60 minutes before and after carotid occlusion. […] The arteries were occluded after a midline cervical incision was made to expose both common carotid arteries. The surgery was performed on a heated surface to maintain body temperature. On completion of surgery, the animals were placed on Vetbed® and allowed to recover under a heat lamp. (Group 1) was subjected to the same surgical procedures except that the carotid arteries were not occluded. The day of surgery is identified as Day 1. At approximately 96 hours after surgery, animals were tested for changes in locomotor activity, over two (2) consecutive periods of 15 minutes, using an automated cage. The automated cages contained photoactivated beams at two (2) positions (a low height and a high height) that recorded the number of crossings each gerbil made in each of two consecutive 15 minute periods.

[6] = system: hippocampal neurons, CA1 area; assay: gerbil forebrain ischemia (bilateral carotid occlusion): histology of CA1 neuronal damage; type: in vivo, Mongolian gerbil; parameters: scale not given here; conditions: Group 3, 6 animals examined
[7] = system: Mongolian gerbils; assay: gerbil forebrain ischemia (bilateral carotid occlusion): locomotor activity; type: in vivo, Mongolian gerbil; conditions: individual gerbil, Group 3, approximately 96 hours after surgery, first 15 minute period
[8] = 10 mM, time 0 hours, 37° C., average n=3, none 0.03
[9] = 10 mM, time 3 hours, 37° C., average n=3, none 0.99
[10] = 1% tricine in drinking water, 1% cholesterol diet, Sudan IV stain
[11] = 1% tricine in drinking water, five rabbits, control mean 65

`O=C(O)CN(CCO)CCO` [Bicine, N,N-bis(hydroxyethyl)glycine] was tested, and the “FOX assay OD (LDL hydroperoxide)” value [1, 8] was −0.02, the “FOX assay OD (LDL hydroperoxide)” value [1, 9] was 0.02 and the “FOX assay OD (LDL hydroperoxide)” value ([1]; Bicine 25 μM, time 0 hours, room temperature, average n = 3) was −0.010. For the same compound, the “FOX assay OD (LDL hydroperoxide)” value ([1]; Bicine 25 μM, time 4 hours, room temperature, average n = 3, none 0.295) was 0.050, the “FOX assay OD (LDL hydroperoxide)” value ([1]; Bicine 50 μM, time 0 hours, room temperature, average n = 3) was −0.007 and the “FOX assay OD (LDL hydroperoxide)” value ([1]; Bicine 50 μM, time 4 hours, room temperature, average n = 3, none 0.295) was 0.030. The “FOX assay OD (LDL hydroperoxide)” value ([1]; Bicine 100#M, time 0 hours, room temperature, average n = 3) was −0.002 and the FOX assay OD (LDL hydroperoxide) ([1]; Bicine 100#M, time 4 hours, room temperature, average n = 3, none 0.295) was 0.04.

With `O=C(O)CNCCO` [Monocine, N-hydroxyethyl glycine] the “FOX assay OD (LDL hydroperoxide)” value [1, 8] was −0.04 and the “FOX assay OD (LDL hydroperoxide)” value [1, 9] was 0.05.

For `O=C(O)CNC(CO)(CO)CO` [Tricine, N-tris(hydroxymethyl)methyl glycine], the “preliminary acute toxicity level” value [2] was > 2000 mg/kg, the “FOX assay OD (LDL hydroperoxide)” value [1, 8] was −0.01 and the “FOX assay OD (LDL hydroperoxide)” value [1, 9] was 0.05. For the same compound, the “FOX assay OD (LDL hydroperoxide)” value ([1]; Tricine 25 μM, time 0 hours, room temperature, average n = 3) was −0.012, the “FOX assay OD (LDL hydroperoxide)” value ([1]; Tricine 25 μM, time 4 hours, room temperature, average n = 3, none 0.295) was 0.061 and the “FOX assay OD (LDL hydroperoxide)” value ([1]; Tricine 50 μM, time 0 hours, room temperature, average n = 3) was −0.007. For the same compound, the “FOX assay OD (LDL hydroperoxide)” value ([1]; Tricine 50 μM, time 4 hours, room temperature, average n = 3, none 0.295) was 0.038, the “FOX assay OD (LDL hydroperoxide)” value ([1]; Tricine 100 μM, time 0 hours, room temperature, average n = 3) was 0.0645 and the “FOX assay OD (LDL hydroperoxide)” value ([1]; Tricine 100 μM, time 4 hours, room temperature, average n = 3, none 0.295) was 0.028. The “Arch Area, percent atherosclerotic lesions on luminal surface, individual rabbit” value [3, 10] was 19% and 39% and 27% and 17% and 22%, the “Descending Area, percent atherosclerotic lesions on luminal surface, individual rabbit” value [3, 10] was 21% (2×) and 28% and 8% and 17% and the “Total Area, percent atherosclerotic lesions on luminal surface, individual rabbit” value [3, 10] was 20% and 38% and 26% and 14% and 21%. The “Arch Area, Mean Value” ([3]; 1% tricine in drinking water, five rabbits, control mean 63) was 25%, the “Descending Area, Mean Value” [3, 11] was 19% and the “Total Area, Mean Value” [3, 11] was 24%. For the same compound, the “Arch Area, Median Value” ([3]; 1% tricine in drinking water, five rabbits, control median 65) was 22%, the “Total Area, Median Value” ([3]; 1% tricine in drinking water, five rabbits, control median 67) was 21% and the “Descending Area, Median Value” ([3]; 1% tricine in drinking water, five rabbits, control median 68) was 21%. For the same compound, the “reduced plaque deposits in the aorta” value ([3]; tricine treated rabbits versus control group) was 63%, the “Side 1 Rating, severity of neuronal damage to CA1 area, individual gerbil” value [4] was 3 (Marked→approximately 75% to 100% of neurons damaged) and 1 (Minimal→up to approximately 25% of neurons damaged) (5×) and the “Side 2 Rating, severity of neuronal damage to CA1 area, individual gerbil” value [4] was 3 (Marked→approximately 75% to 100% of neurons damaged) and 1 (Minimal→up to approximately 25% of neurons damaged) (4×) and 0. For the same compound, the “Total Rating, severity of neuronal damage to CA1 area, individual gerbil” value ([4]; sum of both sides) was 6 and 2 (4×) and 1, the “locomotor activity, beam crossings, High beam, Total” value [5] was 71 and 51 and 76 and 56 and 174 and the “locomotor activity, beam crossings, Low beam, Total” value [5] was 665 and 691 and 525 and 615 and 727 and 451. The “locomotor activity, beam crossings, Low beam, 15 min” value ([5]; first 15 minute period) was 455 and 559 and 456 and 553 and 543 and 372, the “locomotor activity, beam crossings, High beam, 30 min” value ([5]; second 15 minute period) was 15 and 7 and 9 and 16 and 12 and 64 and the “locomotor activity, beam crossings, Low beam, 30 min” value ([5]; second 15 minute period) was 210 and 132 and 69 and 62 and 184 and 79. The “Mean Score for Group” value ([6]; occluded vehicle Group 7: 4.3) was 2.5, the “Total Score for Group” value ([6]; occluded vehicle Group 7: 13 (3 animals)) was 15 and the “locomotor activity, beam crossings, High beam, 15 min” value [7] was 56 and 44 (2×) and 67 and 55 and 110.
